Like-named read-outs stand apart in the source and are kept apart here.
What was measured:
SARS-CoV-2 PLpro [1] = biological target: T1, SARS-CoV-2 PLpro (Severe acute respiratory syndrome coronavirus 2, UniProt P0DTD1); assay: biochemical; assay type: biochemical
SARS-CoV-2 PLpro [2] = biological target: T1, SARS-CoV-2 PLpro; assay: Pro-ISG15 cleavage assay; assay type: biochemical; conditions: for inhibition at 20 µM / inhibition at 10 µM: read-out: Inhibition rate of PLpro-mediated deISGylation; for Inhibition rate of PLpro-mediated deISGylation: 20 μM compound, 50 nM PLpro, 350 nM pro-ISG15, 10 min, 37 °C
[3] = IC50 (50% inhibition of PLpro anti-proteolytic activity), 50 nM PLpro, 50 μM Z-RLRGG-AMC, 10 mM DTT, pH 8.0, 37 °C, mean ± SD

Structure (SMILES) | Inhibition mode (Dixon plot) (SARS-CoV-2 PLpro [1]) | Ki (SARS-CoV-2 PLpro [1]) | IC50 (SARS-CoV-2 PLpro [1]; [3]) | inhibition at 20 µM (SARS-CoV-2 PLpro [2]) | Inhibition rate of PLpro-mediated deISGylation (SARS-CoV-2 PLpro [2]) | inhibition at 10 µM (SARS-CoV-2 PLpro [2]) | IC50 (SARS-CoV-2 PLpro [1]; read-out: IC50 (50% inhibition of PLpro anti-proteolytic activity), pH 8) | Fold more potent anti-proteolytic activity than di-methylated counterpart 8 (SARS-CoV-2 PLpro [1]; ratio of IC50 values, 7 vs 8)
O=C1c2c(O)cc(O)cc2O[C@H](c2ccc(O)cc2)[C@H]1c1c(O)cc(O)c2c(=O)cc(-c3ccc(O)c(O)c3)oc12 [Compound 6, morelloflavone] | non-competitive inhibition | 30.7 ± 2.9 µM | 36.4 ± 4.8 µM | 32.3 to 34.1% | – | – | – | –
COc1ccc(-c2cc(=O)c3c(O)cc(O)cc3o2)cc1 [Acacetin, acacetin, reference compound] | – | – | 91.2 ± 11.3 µM | – | – | – | – | –
O=c1cc(-c2ccc(O)c(-c3c(O)cc(O)c4c(=O)cc(-c5ccc(O)cc5)oc34)c2)oc2cc(O)cc(O)c12 [Compound 1, amentoflavone] | – | 9.1 ± 0.7 µM | 13 ± 1.2 µM | 48.1% | – | – | – | –
O=c1cc(-c2ccc(O)cc2)oc2cc(O)cc(O)c12 [Apigenin, apigenin, reference compound] | – | – | 75.7 ± 6.4 µM | – | – | – | – | –
COc1ccc(-c2cc(=O)c3c(O)cc(O)c(-c4cc(-c5cc(=O)c6c(O)cc(O)cc6o5)ccc4OC)c3o2)cc1 [Compound 4, isoginkgetin] | – | 26.5 ± 2.8 µM | 31.2 ± 3.4 µM | – | near complete inhibition | 53.2 to 71.1% | – | –
CC(C)=CCc1cc2c(cc1O)oc(=O)c1c3ccc(O)cc3oc21 [Psoralidin, reference compound] | – | – | – | – | – | – | 27.8 ± 2.2 µM | –
COc1cc(O)c2c(=O)cc(-c3ccc(OC)c(-c4c(O)cc(O)c5c(=O)cc(-c6ccc(O)cc6)oc45)c3)oc2c1 [Compound 3, ginkgetin] | – | 17.7 ± 1.1 µM | 29.8 ± 1.5 µM | – | near complete inhibition | 53.2 to 71.1% | – | –
O=c1cc(-c2ccc(Oc3c(O)cc4oc(-c5ccc(O)cc5)cc(=O)c4c3O)cc2)oc2cc(O)cc(O)c12 [Compound 7, hinokiflavone] | – | 7.8 ± 0.5 µM | 9.5 ± 1.2 µM | – | near complete inhibition | 65.6 to 98% | – | 2.8 fold
COc1ccc(-c2cc(=O)c3c(O)cc(O)c(-c4cc(-c5cc(=O)c6c(O)cc(O)cc6o5)ccc4O)c3o2)cc1 [Compound 2, podocarpusflavone A] | – | 36.5 ± 4.2 µM | 43.2 ± 2.9 µM | 64.9 to 74.8% | – | 53.2 to 71.1% | – | –
